Where “and” joins values, the source holds several entries; their conditions need not be identical. Identical values can stand only once. Like-named read-outs stand apart in the source and are kept apart here.
T1: DhXR D10A mutant (Debaryomyces hansenii, UniProt Q6BLI9, D10A)
T1 sequence (Q6BLI9 1-317 D10A): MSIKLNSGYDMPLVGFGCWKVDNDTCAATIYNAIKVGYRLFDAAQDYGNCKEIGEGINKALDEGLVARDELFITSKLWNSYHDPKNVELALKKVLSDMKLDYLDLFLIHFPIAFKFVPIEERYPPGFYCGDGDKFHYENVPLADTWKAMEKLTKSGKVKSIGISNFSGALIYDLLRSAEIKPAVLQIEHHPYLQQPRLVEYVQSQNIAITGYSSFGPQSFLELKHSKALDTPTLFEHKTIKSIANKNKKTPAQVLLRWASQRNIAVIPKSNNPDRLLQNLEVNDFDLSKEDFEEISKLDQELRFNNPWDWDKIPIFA

T2: DhXR D42A mutant (Debaryomyces hansenii, UniProt Q6BLI9, D42A)
T2 sequence (Q6BLI9 1-317 D42A): T1 sequence (Q6BLI9 1-317 D10A)

T3: DhXR N305A mutant (Debaryomyces hansenii, UniProt Q6BLI9, N305A)
T3 sequence (Q6BLI9 1-317 N305A): T1 sequence (Q6BLI9 1-317 D10A)

B1: holo-DhXR (Debaryomyces hansenii CBS767) (protein)
chain: T1 sequence (Q6BLI9 1-317 D10A)

Tests used:
[1] = biological target: DhXR Y47A mutant (Debaryomyces hansenii, UniProt Q6BLI9, Y47A); experiment: biochemical; type: binding
Protocol: (§1) Titrations of DhXR with ligands were examined by monitoring the intrinsic tryptophan fluorescence of DhXR using a Varian spectrofluorometer. Experiments were performed in indicated buffers as mentioned in the text. The excitation wavelength and emission wavelengths for monitoring DhXR-ligand interaction were 292 nm and 345 nm respectively. Slit widths were set to 5 nm for all experiments and PMT voltage was adjusted to get maximum signal for a given protein concentration. All experiments were done at 25.0±1°C. Initial readings of both the protein, Fprotein,0 and buffer, Fbuff,0 were taken, with F0 = Fprotein,0–Fbuff,0 defined as the initial fluorescence of the sample. The sample cuvette was then titrated with aliquots of ligands and mixed, and equilibrated for 3–4 minutes before measurement. Data points from five such measurements were averaged to obtain Fave,i. The relative fluorescence quenching upon sugar binding is defined as Qobs,i = (F0–Fave,i)/F0. All measurements were corrected for dilution, and inner filter effects.
(§2) Binding of ligands to DhXR was analyzed using two site binding model. [drawing 1] (1) where Q1 and Q2 are the fluorescence quenching corresponding to one and two ligands bound, respectively; L is concentration of free ligand in solution; K1,obs and K2,obs are association constants for the binding of the first and the second ligand molecule. Errors were calculated from fitting analysis of two independent experiments.
(§3) We tested the activity of all mutants and activities were normalized to the activity of wild type DhXR with respect to its D-xylose reducing activity.

[2] = biological target: T4, holo-DhXR (Debaryomyces hansenii, UniProt Q6BLI9); experiment: Single point specific activity of holo-DhXR towards different sugars; type: biochemical; details: saturated sugar concentration (100 mM), 40 °C
Protocol: (§4) The xylose reductase activities of recombinant DhXR was determined spectrophotometrically by monitoring the change in A340 upon reduction of NADPH to NADP. The standard assay mixture contained 50 mM KPO4, pH 7.0, 100 mM sugar substrate, 0.3 mM NADPH, 0.18 µM of enzyme. Single point activity studies were performed at 40°C and all reactions were started by the addition of enzyme to a final volume of 0.8 ml (in standard assay condition). […] Errors for the activity assays were calculated from triplicate experiments. The kinetic parameters were determined using a range of substrate concentrations. Here, the reaction was performed at 25°C and assay mixture contained 50 mM KPO4, pH 7.0, 0.15 mM NADPH, 0.18 µM of enzyme and varying substrate concentrations. Steady state kinetics data were fit to Michaelis-Menten model, v = Vmax * [S]/([S]+Km), where Vmax, maximal velocity; Km, Michaelis-Menten constant; S, substrate concentration, and v, initial velocity.

[3] = biological target: T4, holo-DhXR; experiment: Specific activity of DhXR with 100 mM D-xylose in presence of competing sugars; type: biochemical
Protocol: as §4
(§5) Assays were performed at 100 mM D-xylose and concentrations of competing sugars were varied (25 mM to 400 mM). […] Both DhXR and NADPH (20.0 µM) are pre-incubated and fluorescence signal was monitored until no further change. […] It should be noted that D-xylose is the substrate and is very likely to be reduced soon after binding.

[4] = biological target: T4, holo-DhXR; experiment: Steady state kinetics of carbonyl substrate reduction by holo-DhXR (A340, NADPH); type: biochemical; details: for Vmax / k cat: 25 °C, pH 7.0, 0.15 mM NADPH, 0.18 µM enzyme; for Km/Kd ratio (net affinity loss): Km of holoenzyme vs Kd of apoenzyme; for catalysis in steady state kinetic curves (in words): comparison of kinetic curves of different sugars
Protocol: as §4
To understand the specificity determining component in catalysis, we studied the steady state kinetics of holo-DhXR towards different carbonyl substrates. […] Therefore, all kinetic data analyzed fitting to Michaelis-Menten model by Non-Linear Least Squares method. (Fig. 4A). Steady state kinetic parameters are also determined for other sugars (table 3, Fig. 4B). […] We compared the Km/Kd ratio as an indicator of net affinity loss for a given substrate (Fig. S5).
In order to further verify that holoenzyme discriminates between substrate and non-substrate sugars, we challenged the catalysis of D-xylose by adding non-substrate sugars during kinetic experiments. […] We studied the kinetics of D-xylose reduction by holo-DhXR in the presence of fixed concentration (∼40 mM) of three sugars (Fig. 4C).

[5] = biological target: DhXR K76A mutant (Debaryomyces hansenii, UniProt Q6BLI9, K76A); experiment: biochemical; type: binding
Protocol: as §1, §2, §3

[6] = biological target: DhXR H109A mutant (Debaryomyces hansenii, UniProt Q6BLI9, H109A); experiment: biochemical; type: binding
Protocol: as §1, §2, §3

[7] = biological target: apo-DhXR (wild type xylose reductase) (Debaryomyces hansenii, UniProt Q6BLI9); experiment: Tryptophan fluorescence quenching titration, ligand binding to apo-DhXR wild type
Protocol: as §1, §2
We examined the binding of D-xylose, xylitol, and NADPH to apo-DhXR. Quenching of tryptophan fluorescence upon ligand binding was used as the signal for monitoring the extent of binding. Apo-DhXR was excited at 292 nm and emission of tryptophan fluorescence was scanned between 300–375 nm (Fig. S2). […] Intrinsic site-specific binding constants are estimated from the macroscopic binding constants obtained from fitting by removing the statistical factors as in eq (2). [drawing 2] (2)

[8] = system: DhXR-NADPH complex; experiment: Fluorescence titration of pre-formed DhXR-NADPH binary complex; type: binding, Debaryomyces hansenii; details: DhXR pre-incubated with 20.0 µM NADPH
Protocol: as §1, §5

[9] = biological target: T1, DhXR D10A mutant; experiment: Fluorescence quenching titration, ligand binding to DhXR D10A mutant
Protocol: as §1, §2, §3

[10] = biological target: T2, DhXR D42A mutant; experiment: Fluorescence quenching titration, ligand binding to DhXR D42A mutant
Protocol: as §1, §2, §3

[11] = biological target: T3, DhXR N305A mutant; experiment: Fluorescence quenching titration, ligand binding to DhXR N305A mutant
Protocol: as §1, §2, §3

[12] = substrate: O=C[C@H](O)[C@@H](O)[C@H](O)CO; experiment: Steady state kinetics of carbonyl substrate reduction by holo-DhXR (A340, NADPH); type: biochemical, Debaryomyces hansenii; details: other: 25 °C, pH 7.0, 0.15 mM NADPH, 0.18 µM enzyme
[13] = 25 mM sugar added in 100 mM D-xylose reaction
[14] = 100 mM sugar added in 100 mM D-xylose reaction
[15] = 400 mM sugar added in 100 mM D-xylose reaction
[16] = Kd1,int, wild type apo-DhXR, first site, 25 °C
[17] = wild type apo-DhXR, first site, 25 °C, read-out: Kd1,int
[18] = wild type apo-DhXR, second site, 25 °C, read-out: Kd2,int

| Molecule | reduction in affinity versus wild type ([1]; Y47A, first site) | reduction of holoenzyme activity compared with D-xylose [2] | Specific activity [3, 13] [nmol/min] | Specific activity [3, 14] [nmol/min] | Specific activity [3, 15] [nmol/min] | Vmax [4] [nmol/min] | k cat [4] [s⁻¹] | Kd [1] [mM] | Kd [5] [mM] | Kd [6] [mM] | Kd [7, 17] [mM] | other results |
| --- | --- | --- | --- | --- | --- | --- | --- | --- | --- | --- | --- | --- |
| O=C[C@H](O)[C@@H](O)[C@@H](O)[C@H](O)CO [D-galactose] | 8–10 fold | 50% | 76.8 ± 3.8 | 84.4 ± 3.3 | 99.3 ± 4.3 | 136.5 ± 9.4 | 15.2 | – | – | – | – | – |
| O=C[C@H](O)[C@H](O)[C@H](O)CO [D-ribose] | ~2 fold | – | 77.5 ± 3.6 | 84.7 ± 3.8 | 78.5 ± 3.1 | 93.1 ± 3.2 | 10.3 | 12 ± 1 | 10 ± 2 | 13 ± 3 | – | reduction in affinity versus wild type ([5]; K76A): 2 fold; Km/Kd ratio (net affinity loss) [4]: 12–15 fold; Kd [7, 16]: ~10.5 mM and 10.5 mM; fold less affinity than D-xylose ([7]; first site, apo-DhXR): ~2 fold; Kd ([7]; read-out: Kd2,int, wild type apo-DhXR, second site, 25 °C): 83 ± 7 mM |
| C[C@H](O)[C@H](O)[C@@H](O)[C@@H](O)C=O [L-rhamnose] | – | more than 95% | 76.2 ± 6.4 | 73.4 ± 2.8 | 68.7 ± 3.4 | – | – | – | – | – | 14 ± 3 | binding to DhXR-NADPH complex (fluorescence signal) [8]: cannot bind; catalysis in steady state kinetic curves (in words) [4]: very low activity; Km/Kd ratio (net affinity loss), predicted minimum ([4]; could not be estimated due to insignificant catalysis, minimum predicted): > 500 fold; Kd [7, 18]: 33 ± 13 mM |
| NC(=O)C1=CN([C@@H]2O[C@H](COP(=O)(O)OP(=O)(O)OC[C@H]3O[C@@H](n4cnc5c(N)ncnc54)[C@H](OP(=O)(O)O)[C@@H]3O)[C@@H](O)[C@H]2O)C=CC1 [NADPH, Nicotinamide adenine dinucleotide phosphate] | – | – | – | – | – | – | – | 0.01 ± 0.0007 | 0.01 ± 0.0006 | 0.0055 ± 0.002 | – | Kd [9]: 0.0033 ± 0.0002 mM; Kd ([9]; read-out: Kd2,int, D10A, second site, NADPH): 0.01 ± 0.003 mM; Kd [10]: 0.01 ± 0.0005 mM; Kd ([1]; read-out: Kd2,int, Y47A, second site, NADPH): 0.192 ± 0.026 mM; Kd ([6]; read-out: Kd2,int, H109A, second site, NADPH): 0.083 ± 0.035 mM; Kd [11]: 0.0083 ± 0.002 mM; Kd ([11]; read-out: Kd2,int, N305A, second site, NADPH): 0.09 ± 0.025 mM; Kd ([7]; Kd1,int, wild type apo-DhXR, first site, NADPH): 0.0011 ± 0.0002 mM; ratio of first to second intrinsic binding constant ([7]; affinity of first vs second ligand molecule): ~4; affinity of cofactor relative to substrate affinity ([7]; apoenzyme): ~4700 times; Kd ([7]; read-out: Kd2,int, wild type apo-DhXR, second site, NADPH): 0.0039 ± 0.0002 mM; K1,int (intrinsic association constant, first ligand) ([7]; wild type apo-DhXR): 8.9±0.4×10^5 M^−1 |
| OC[C@H]1O[C@@](CO)(O[C@H]2O[C@H](CO)[C@@H](O)[C@H](O)[C@H]2O)[C@@H](O)[C@@H]1O [Sucrose, sucrose] | ~2 fold | more than 95% | – | – | – | – | – | 11 ± 2 | 10 ± 1 | 5 ± 0.2 | – | reduction in affinity versus wild type ([6]; H109A): no reduction; Kd [7, 16]: 7.3 ± 1 mM; Kd ([7]; Kd2,int, wild type apo-DhXR, second site, 25 °C): 19 ± 5 mM |
| OC[C@@H](O)[C@H](O)[C@@H](O)CO [Xylitol, xylitol] | – | – | – | – | – | – | – | – | – | – | 8.2 ± 1 | – |
| D-arabinose | 8–10 fold | – | 69.4 ± 3.1 | 68.2 ± 3.7 | 66.5 ± 4.5 | 127.2 ± 6.1 | 14.1 | – | – | – | 8.1 ± 1 | Kd ([1]; Y47A, first site, read-out: Kd1,int): 66 ± 13 mM; Kd ([5]; K76A, first site, read-out: Kd1,int): 34 ± 4 mM; Kd ([6]; H109A, first site, read-out: Kd1,int): 28 ± 3 mM; Km/Kd ratio (net affinity loss) [4]: ~220 fold; catalysis in steady state kinetic curves (in words) [4]: very weakly hydrolyzed; Km relative to that of D-xylose ([4]; fold higher): 22 fold; Kd [7, 18]: 100 ± 10 mM |
| B1 | – | – | – | – | – | – | – | – | – | – | – | Km [12]: 81 ± 6 mM; Vmax [12]: 0.185 µmol/min; kcat [12]: 20.6 s⁻¹; kcat/Km [12]: 254 M⁻¹ s⁻¹ |

Reference: article PMC3458928, “Co-Factor Binding Confers Substrate Specificity to Xylose Reductase from Debaryomyces hansenii” (PLoS ONE, 2012)
